# Earlier results as cited in patent US8877779B2 (priority 2007, dated 2014).
# Conditions: Proc. Natl. Acad. Sci. U.S.A. 97: 4938-4943, 2000
compound,measurement,value
O=C1NCN(c2ccccc2)C12CCN([C@@H]1CC[C@H]3CCCc4cccc1c43)CC2 [Ro64-6198],bioavailability (BA),4%
